Earlier results as cited in article PMC7489895 (Biochemical Journal, 2020).

How the values were obtained:
importin α = importin α (Mus musculus, UniProt P52293); settings: read-out: KD, NLS - importin α
human skeletal muscle = settings: ref Ahn et al. [30]
MondoA = settings: skeletal myoblasts, in response to insulin; ref Ahn et al. [30]

| Kd (importin α) | Molecule | effect on intramuscular lipid accumulation (human skeletal muscle) | effect on nuclear localization of MondoA (MondoA) |
| --- | --- | --- | --- |
| 190 ± 20 nM | K^155RPAATKKAGQAKKKK^170 (KRPAATKKAGQAKKKK; NLS; UniProt P05221 155-170, looked up, fragment) [Nucleoplasmin] |  |  |
| 5000 ± 100 nM | R^617KCYEAGMTLGARKLKKL^634 |  |  |
|  | COc1ccc(-c2csc(NC(=O)c3ccc(OCC(=O)N4CCOCC4)c(OC)c3)n2)cc1 [SBI-477] | inhibits intramuscular lipid accumulation | inhibits the nuclear localization of Mondo A |

| Molecule | Kd (importin α) | effect on intramuscular lipid accumulation (human skeletal muscle) | effect on nuclear localization of MondoA (MondoA) |
| --- | --- | --- | --- |
| P^126KKKRKV^132 [SV40] | 310 ± 150 nM |  |  |
